Among the data in PMC7822874, “Chemoprotective antimalarials identified through quantitative high-throughput screening of Plasmodium blood and liver stage parasites” (Scientific Reports, 2021) are viability values, retold here.

The viability is a read-out of living cells in per cent, often relative to untreated cells.

The structures appear in SMILES notation.

One data set can be described thus: in vitro. The following applies: human, hepg2-a16-cd81egfp cells.
With `C=C1C(=O)O[C@@H]2C[C@@H](C)[C@@H]3C=CC(=O)[C@@]3(C)[C@@H](OC(=O)CC(=O)O[C@H]3[C@@H]4C(=C)C(=O)O[C@@H]4C[C@@H](C)[C@@H]4C=CC(=O)[C@]43C)[C@H]12` [MLS000728515], the viability at 3 µM came to 16.4%.

Staying with this data set, now noted: human, hepg2-a16-cd81egfp cells, % viability.
As to `OC(CNCC1CCCO1)Cn1c2ccc(Cl)cc2c2cc(Cl)ccc21` (stereo not drawn) [MLS000525403], the viability at 3 µM is 90.7%.

On to `Cc1ccnc(NC(=O)c2cccc(S(=O)(=O)N3CCCc4ccccc43)c2)c1` [MLS001159724], for which the viability at 3 µM is 89.6%.

In the case of `CC[C@@H](C(=O)[C@@H](C)[C@@H](O)[C@H](C)CCc1ccc(C)c(O)c1C(=O)O)[C@H]1O[C@](CC)([C@H]2CC[C@](O)(CC)[C@H](C)O2)C[C@@H]1C` [NCGC00095029], the viability at 3 µM came out at 27.3%.

On to `O=C(Nc1nc(-c2ccccn2)cs1)c1cccc(S(=O)(=O)N2CCOCC2)c1` [MLS002161290], for which the viability at 3 µM was determined as 62.2%.

With `COc1cc2nc(SCc3ccc(F)cc3)n3nc(CCn4c(C)nc5ccccc54)nc3c2cc1OC` [NCGC00108638], the viability at 3 µM was 107%.

For the compound `CCCN(C(=O)C(=O)Nc1ccc2nc3n(c(=O)c2c1)CCCCC3)c1ccc(OCC)cc1` [NCGC00114456], the viability at 3 µM came out at 93.7%.

As for `Cc1nc2ccc(NC(=O)c3cc(S(=O)(=O)N(C)c4ccccc4)ccc3Cl)cc2s1` [MLS000393823], the viability at 3 µM was 59.7%.

Turning to `O=C(N/N=C(/c1ccccc1)c1cccnc1)c1cccc(F)c1` [MLS001224623], the viability at 3 µM was found to be 32%.

As for `C/C(=N\NC(=O)c1cccc(Br)c1)c1ccccn1` [MLS001232242], the viability at 3 µM is 81.3%.

With `CCCCN(CC)CCNC(=O)c1cc2c(-c3ccc(Cl)cc3)nn(C)c2s1` [MLS001199341], the viability at 3 µM stood at 90.6%.

Regarding `Clc1ncnc2scc(-c3ccc(Br)cc3)c12` [MLS000591637], the viability at 3 µM was determined as 99.5%.

With `COc1cc(C2NCc3ccccc3-n3cccc32)ccc1O` (stereo not drawn) [MLS000047988], the viability at 3 µM was 102%.

Take `Clc1ccc(CCC(Cn2ccnc2)Sc2c(Cl)cccc2Cl)cc1` (stereo not drawn) [NCGC00179596]: the viability at 3 µM was found to be 100%.

Consider `CCCC(=O)NC(c1ccc(OC)cc1)c1ccc2cccnc2c1O` (stereo not drawn) [MLS000715379], for which the viability at 3 µM was 59.7%.

Regarding `COc1cc(O)c(C(CCN2CCCC(C)C2)c2ccc3c(c2)OCO3)c(OC)c1` (stereo not drawn) [MLS000879506], the viability at 3 µM was 97.8%.

As to `CCOc1cc(C(=O)N2CCC(CC3CC(c4ccc(Cl)cc4)=NO3)(C(=O)NCC3CCCCC3)CC2)cc(OCC)c1OCC` (stereo not drawn) [MLS001143937], the viability at 3 µM was determined as 93.2%.

Turning to `OCCCNc1cc(-c2ccnc(Nc3cccc(Cl)c3)n2)ccn1` [NCGC00346940], the viability at 3 µM came out at 8.46%.

Take `Cc1ccc(-c2nn(-c3ccccc3)c3[nH]c(=O)c(CNCc4ccccc4)cc23)cc1` [MLS000067457]: the viability at 3 µM is 95.4%.

As for `CCCC(C)C(=O)Nc1ncc(S(=O)(=O)c2ccc([N+](=O)[O-])cc2)s1` (stereo not drawn) [MLS001034555], the viability at 3 µM is 94%.

Regarding `COc1ccc(CCC(=O)N2Cc3ccccc3OC3(CCN(C)CC3)C2)cc1` [NCGC00456460], the viability at 3 µM came out at 106%.

Consider `Cc1nn2c(c1-c1ccccc1-c1ccccc1)N(CCC(C)C)CCC2` [NCGC00420437], for which the viability at 3 µM was determined as 15.3%.

Take `CCOc1ccc(Nc2cc(=O)oc3ccccc23)cc1` [MLS000519261]: the viability at 3 µM stood at 103%.

`Nc1nonc1-n1nnc(C(=O)N/N=C/c2ccc(Br)cc2)c1-c1ccc2c(c1)OCO2` [MLS001142619]: the viability at 3 µM was 89.5%.

Turning to `O[C@H]1[C@H](NCC2CCCCC2)[C@H]2CO[C@H](O2)[C@@H]1N1CCC(Cc2ccccc2)CC1` [NCGC00394729], the viability at 3 µM was determined as 99.2%.

Take `O=C(Nc1nc(-c2ccccn2)cs1)c1cccc(-n2cnnn2)c1` [MLS000770597]: the viability at 3 µM stood at 63.7%.

For `COc1ccc2ccc(O)c(CN3CC=C(c4ccccc4)CC3)c2c1` [MLS000760157], the viability at 3 µM is 97.2%.

Regarding `CC1(C)N=C(N)N=C(N)N1c1ccc(OCCCOc2ccccc2)c(Cl)c1` [MLS000738223], the viability at 3 µM was 34.6%.

In the case of `C=C(C)CSc1nc2sc3c(c2c(=O)n1-c1ccccc1)CCN(C)C3` [MLS001173616], the viability at 3 µM was determined as 98.7%.

For the compound `O=C(Nc1ccc2c(N3CCCCC3)ncnc2c1)c1cc(F)cc(F)c1` [NCGC00425525], the viability at 3 µM came out at 53.4%.

Take `CCOc1ccc(-n2c(SCC(N)=O)nc3sc4c(c3c2=O)CCN(C)C4)cc1` [MLS000332254]: the viability at 3 µM worked out at 95.7%.

With `O=C(NC1=C(Nc2ccc(F)cc2)C(=O)c2ccccc2C1=O)c1ccc(Cl)cc1` [MLS000375026], the viability at 3 µM was 97%.

`Cc1ccc(/C=N/NC(=O)c2nnn(-c3nonc3N)c2-c2ccc3c(c2)OCO3)s1` [MLS001142659]: the viability at 3 µM was determined as 90.4%.

For `Cc1ccc(C(=O)N/N=C/c2ccc([N+](=O)[O-])s2)cc1` [MLS000519463], the viability at 3 µM is 95.4%.

In the case of `FC(F)(F)c1cccc(Nc2nc3nonc3nc2Nc2ccc(Cl)cc2)c1` [NCGC00100377], the viability at 3 µM came to 47.1%.

`Cc1cc(O)c(CN2CCN(S(=O)(=O)c3cccs3)CC2)cc1C(C)C` [MLS002157185]: the viability at 3 µM was 92.3%.

Take `CCN1CCN(Cc2ccc(NC(=O)c3cc(NC(=O)c4cncc(-c5ccc(C#N)cc5)c4)cc(OC)c3)cc2C(F)(F)F)CC1` [MLS000911575]: the viability at 3 µM worked out at 99.9%.

Regarding `COc1ccc(C)cc1Nc1nc(N)c2cc(OC)c(OC)cc2n1` [NCGC00107383], the viability at 3 µM worked out at 94.9%.

Consider `CCC1(OC(=O)CN)C(=O)OCc2c1cc1n(c2=O)Cc2cc3ccccc3nc2-1` (stereo not drawn) [MLS000766263], for which the viability at 3 µM was found to be 29.3%.

Regarding `CCOC(=O)c1nc2cc3n(c(CC(C)C)c-2c1C)CC(C)=C3C` [MLS000594428], the viability at 3 µM was determined as 105%.

Take `Cc1ccc(-[n+]2c(-c3ccc(Cl)cc3)cn3c2CCC3)cc1` [MLS000780005]: the viability at 3 µM is 90.4%.

Turning to `Cc1ccc(S(=O)(=O)n2nccc2-c2c(-c3ccc(Cl)cc3)noc2C)cc1` [MLS001111122], the viability at 3 µM was found to be 101%.

For `CCOC(=O)c1nnn(-c2nonc2N)c1-c1ccc(Br)cc1` [MLS000727795], the viability at 3 µM was 96.5%.

Turning to `COc1cc(C(=O)OCC(=O)N2CCCCC2C)cc(NC(=O)c2cccs2)c1OC` (stereo not drawn) [MLS001003405], the viability at 3 µM was found to be 97.3%.

Regarding `Oc1ccc(-c2ccccc2)cc1CN1CCCCCC1` [MLS001195126], the viability at 3 µM came out at 104%.

`O=C(CSc1nc(Nc2ccccc2)nc(N2CCOCC2)n1)Nc1cc(Cl)ccc1O` [MLS001035450]: the viability at 3 µM stood at 85.3%.

As to `CCN(CC)CCOC(=O)c1ccc(N/C=C(/C#N)c2nc(-c3cc4ccccc4oc3=O)cs2)cc1` [MLS001164950], the viability at 3 µM is 105%.

As to `CC1CCN(S(=O)(=O)c2ccc3c(c2)C(=NO)c2cc(S(=O)(=O)N4CCC(C)CC4)ccc2-3)CC1` [MLS000551434], the viability at 3 µM is 6.86%.

As for `COc1ccc(OC)c(-n2c(-c3cccc(O)c3)n[nH]c2=S)c1` [MLS000089016], the viability at 3 µM is 93.1%.

Take `CCCC(=O)Nc1sc2c(c1C(=O)Nc1ccccn1)CCCC2` [MLS000765104]: the viability at 3 µM is 97.6%.

On to `CCN1CCN(Cc2ccc(NC(=O)c3cc(NC(=O)c4cc(-c5ccc(OC)cc5)n[nH]4)cc(OC)c3)cc2C(F)(F)F)CC1` [MLS000911571], for which the viability at 3 µM came out at 97%.
